# Assay results reported in patent US20180028516A1, “METHODS AND DEVICES FOR THE TREATMENT OF OCULAR DISEASES IN HUMAN SUBJECTS” (CLEARSIDE BIOMEDICAL, INC., priority 2012, published 2018).
# What was measured:
# [1] = Ocular safety and histopathology after SCS TA (Example 8); type: in vivo, pigmented rabbits; details: SCS TA by microneedle, up to 120 days
# Description: in this study, the total amount of triamcinolone acetonide (TA) delivered into live pigmented rabbit eyes when injected, into the suprachoroidal space using a hollow microneedle or into the vitreous using a standard 30 gauge needle was compared.
# On Day 0, pigmented rabbits were injected with either intravitreal or bilateral suprachoroidal injections of 2 mg/100 μl TA Triesence® (TA; Alcon Labs). intravitreal injections were performed using a 30 g needle (Becton-Dickinson) and suprachoroidal injections were performed using a 33 g 750 μm microneedle. The residual amount of TA present in the syringe/needle assembly after injection was determined by RP-HPLC. Clinical observations, slit lamp biomicroscopy with McDonald-Shadduck scoring, intraocular pressure assessment (IOP), electroretinography (ERG), and systemic exposure were assessed up to 120 days post-dose. Animals were sacrificed at 30 minutes, 7 days, 30 days, 60 days, and 120 days for macroscopic observations, ocular toxicokinetics, and ocular histopathology.
# [2] = Electroretinography in porcine uveitis study (Example 13); type: in vivo, domestic weanling pigs; details: after SCS or IVT injections of 0.2 or 2.0 mg TA
# Description: With the pigs anesthetized on Days −1, 0 and 3, and pupils dilated with 1% tropicamide HCl. and corneas anesthetized with 0.5% proparacaine HCl, whole field ERGs were recorded from the left eve prior to injections. All animals were dark adapted for 15 minutes prior to ERG. A monopolar contact lens electrode (ERG-jet, La Chaux des Fonds, Switzerland) was placed on the cornea to serve as an active electrode. A subdermal electrode at the lateral canthus served as the indifferent electrode. A Barraquer eyelid speculum was placed to maintain open eyelids and a subdermal needle electrode was inserted dorsally as the ground electrode. EKGs were elicited by brief flashes at 0.33 Hz delivered with a mini-ganzfehl photostimulator (Roland Instruments, Wiesbaden, Germany) at maximal intensity. Twenty responses were amplified, filtered, and averaged (Retiport Electrophysiologic Diagnostic Systems, Rolland Instruments, Wiesbaden, Germany). B wave amplitudes were recorded from each pig at the designated times.
# [3] = Scotopic electroretinography after SCS TA (Example 9); type: in vivo, New Zealand White rabbit; details: for Scotopic OdB wave A, Amplitude, Mean / Scotopic OdB wave A, Time, Mean / Scotopic OdB wave B, Amplitude, Mean / Scotopic OdB wave B, Time, Mean: right & left eye
# Description: (§1) In this study, the ocular tolerability and toxicokinetics of suprachoroidal administration of triamcinolone acetonide (TA) using a microneedle in a GLP study in the New Zealand White rabbit.
# (§2) On Day 0, New Zealand White (NZW) rabbits were administered a single bilateral supraehoroidal injection of vehicle, 3.2 mg (80 μL) or 5.2 mg (130 μL) of TA (Triesence®, Alcoa labs) using a 33 g 750 μm microneedle. Clinical observations, slit lamp biomicroscopy with McDonald-Shadduck scoring, intraocular pressure assessment (IOP), electroretinography (ERG), and systemic exposure were assessed up to 26 weeks post-dose. Animals were sacrificed on Day 1, Week 13, and Week 26 for macroscopic observations, ocular toxicokinetics, and ocular histopathology.
# [4] = tested on: LPS-induced acute posterior uveitis; assay: Ocular inflammatory scores in LPS-induced porcine uveitis (Example 13); details: for mean cumulative inflammatory scores compared with Group 1 (BSS IVT/vehicle SCS): Days 1, 2, and 3
# Description: A totalof 20 domestic wearrling pigs (Sus sergfir domesticus), male or female, (12-20 kg) were used in this study. Only the left eye was tested in this study; the right eye was not injected, examined, or treated. All injections were performed with the pigs anesthetized (intramuscular Telazol-Ketamine-Xylazine and isoflorane in oxygen via mask) and the eve prepared aseptically (sterile 5% betadine solution followed by irrigation with sterile eyewash).
# Twenty-four hours prior to SCS or IVT injection of TA or vehicle (Day-1), 100 ng of lipopolysaccharide (ITS; E. coli 055:B55; Sigma, Inc. St. Louis, Mo.) in 100 μL BSS (Balanced Salt Solution, Alcon Laboratories, Inc., Forth Worth, Tex.), was injected using a 27 gauge needle into the posterior central vitreous.
# Twenty-four hours after the LPS injection (Day 0), 0.2 mg or 2.0 mg of commercially-available TA (Triesence®; Alcon Laboratories, Inc, Forth Worth, Tex.) or vehicle was injected either intravitreally (27 gauge needle) or into the SCS (33 gauge, 850 μm microneedle) in eyes prepared aseptically (Table 7). The dose of TA was selected to represent a typical therapeutic dose (e.g., 2.0 mg) and a dose 10 times less to compare therapeutic effect.
# All injections were made superiorly, approximately 5-6 mm posterior to the limbus. […] TA was diluted using vehicle to provide a low dose (0.2 mg/100 μL) or high dose (2.0 mg/100 μL). The vehicle (100 uL) was also used in the control groups, but without TA.
# A Hackett-McDonald microscopic ocular inflammatory scoring system, modified for use in pigs (instead of New Zealand White rabbits) as described below, was used to evaluate the ocular anterior segment and anterior vitreous. Scores of the conjunctiva (congestion, swelling, discharge, 0-4); aqueous flare (0-3); pupillary light reflex (0-2); iris involvement (0-4); cornea (involvement and area, 0-4); pannus (vascularization, 0-2); and anterior vitreal cellular infiltrate (0-4) were summed to provide a single inflammatory score for each animal for each examination. Using a portable slit lamp biomicroscope (Zeiss HSO-10, Carl Zeiss Meditec, Inc. USA), ocular inflammatory scores were evaluated at Day -1 (prior to LPS injection), at Day 0 (prior to vehicle or TA injection), then at 1, 2 and 3 days after injection,
# For histologic grading, two independent observers masked to the treatment group evaluated each eye at each time point and the average resulting scores for each animal were used for analysis, Parametric normally distributed data (i.e., IOP, ERG, retinal thickness, cell counts, protein concentration) were compared by time point for each group using 1-way ANOVA models with Tukey-Kramer post-hoc analysis. For non-parametric data (i.e., clinical scores, histologic grades), Wilcoxon tests were conducted per animal by time point. Differences were considered significant at P<0.05. Results and probAilities were calculated using computerized statistical software (JMP 10, SAS Inc. Cary, N.C.).
# [5] = Ophthalmic examinations (slit lamp, fundus) and clinical observations after SCS TA (Example 9); type: in vivo, New Zealand White rabbit
# Description: as §1, §2
# [6] = Ocular histopathology after SCS TA (Example 9); type: in vivo, New Zealand White rabbit
# Description: as §1, §2
# [7] = 3.2 mg TA/eye SCS, F, 13 weeks post administration
# [8] = 5.2 mg TA/eye SCS, F, 13 weeks post administration
# [9] = 5.2 mg TA/eye SCS, M, 13 weeks post administration
smiles,measurement,setting,value
"CC1(C)O[C@@H]2C[C@H]3[C@@H]4CCC5=CC(=O)C=C[C@]5(C)[C@@]4(F)[C@@H](O)C[C@]3(C)[C@]2(C(=O)CO)O1 [TA, triamcinolone acetonide]","safety profile (inflammation, edema, apoptosis, necrosis)",[1],"no marked inflammation, edema, apoptosis, or necrosis at any time point"
same,retinal dysfunction (decrease in b wave amplitude),[2],no evidence of retinal dysfunction
same,"Scotopic OdB wave A, Amplitude, Mean","[3]; 3.2 mg TA/eye SCS, Baseline",−133.2 μV
same,"Scotopic OdB wave A, Time, Mean","[3]; 3.2 mg TA/eye SCS, Baseline",11.6 ms
same,"Scotopic OdB wave B, Amplitude, Mean","[3]; 3.2 mg TA/eye SCS, Baseline",285.8 μV
same,"Scotopic OdB wave B, Time, Mean","[3]; 3.2 mg TA/eye SCS, Baseline",42.1 ms
same,"Scotopic OdB wave A, Amplitude, Mean","[3]; 3.2 mg TA/eye SCS, Day 1",−132 μV
same,"Scotopic OdB wave A, Time, Mean","[3]; 3.2 mg TA/eye SCS, Day 1",11.4 ms
same,"Scotopic OdB wave B, Amplitude, Mean","[3]; 3.2 mg TA/eye SCS, Day 1",276.5 μV
same,"Scotopic OdB wave B, Time, Mean","[3]; 3.2 mg TA/eye SCS, Day 1",47.5 ms
same,"Scotopic OdB wave A, Amplitude, Mean","[3]; 3.2 mg TA/eye SCS, Week 13",−132.6 μV
same,"Scotopic OdB wave A, Time, Mean","[3]; 3.2 mg TA/eye SCS, Week 13",11.7 ms
same,"Scotopic OdB wave B, Amplitude, Mean","[3]; 3.2 mg TA/eye SCS, Week 13",299.8 μV
same,"Scotopic OdB wave B, Time, Mean","[3]; 3.2 mg TA/eye SCS, Week 13",51.1 ms
same,"Scotopic OdB wave A, Amplitude, Mean","[3]; 5.2 mg TA/eye SCS, Baseline",−137.3 μV
same,"Scotopic OdB wave A, Time, Mean","[3]; 5.2 mg TA/eye SCS, Baseline",11.7 ms
same,"Scotopic OdB wave B, Amplitude, Mean","[3]; 5.2 mg TA/eye SCS, Baseline",286.4 μV
same,"Scotopic OdB wave B, Time, Mean","[3]; 5.2 mg TA/eye SCS, Baseline",42.3 ms
same,"Scotopic OdB wave A, Amplitude, Mean","[3]; 5.2 mg TA/eye SCS, Day 1",−130.8 μV
same,"Scotopic OdB wave A, Time, Mean","[3]; 5.2 mg TA/eye SCS, Day 1",11.4 ms
same,"Scotopic OdB wave B, Amplitude, Mean","[3]; 5.2 mg TA/eye SCS, Day 1",265.7 μV
same,"Scotopic OdB wave B, Time, Mean","[3]; 5.2 mg TA/eye SCS, Day 1",43.1 ms
same,"Scotopic OdB wave A, Amplitude, Mean","[3]; 5.2 mg TA/eye SCS, Week 13",−117.1 μV
same,"Scotopic OdB wave A, Time, Mean","[3]; 5.2 mg TA/eye SCS, Week 13",12.6 ms
same,"Scotopic OdB wave B, Amplitude, Mean","[3]; 5.2 mg TA/eye SCS, Week 13",264.6 μV
same,"Scotopic OdB wave B, Time, Mean","[3]; 5.2 mg TA/eye SCS, Week 13",45.7 ms
same,effect on a-wave or b-wave implicit time or amplitude (scotopic ERG),[3]; 3.2 or 5.2 mg TA SCS,no administration or TA-related effect
same,effectiveness in reducing acute ocular inflammation,[4]; 0.2 mg TA IVT,less effective
same,"mean cumulative inflammatory scores compared with Groups 1, 3, 4 and 6","[4]; 0.2 mg TA IVT (Group 5), 24 hours after treatment (Day 1)",significantly higher
same,mean cumulative inflammatory scores compared with SCS TA (Groups 3 and 4) and Group 1,"[4]; 0.2 mg TA IVT, 48 and 72 hours after treatment",significantly higher mean scores
same,mean cumulative inflammatory scores compared with Group 1 (BSS IVT/vehicle SCS),[4]; 0.2 mg TA SCS (Group 3),not significantly different
same,mean cumulative inflammatory scores compared with Group 1 (BSS IVT/vehicle SCS),[4]; 2.0 mg TA SCS (Group 4),not significantly different
same,effectiveness in reducing inflammation compared with 2.0 mg TA IVT injection,[4]; SCS injection of 0.2 mg and 2.0 mg of TA,as effective
same,decrease in effective dose when the drug is delivered to the SCS,[4]; SCS vs IVT,10 fold
same,"Conjunctival congestion (slight, transient), animals with finding",[5]; [7],2
same,"Conjunctival discharge (slight, transient), animals with finding",[5]; [7],2
same,"Corneal Staining (slight, transient), animals with finding",[5]; [7],1
same,"Hyperemia (severe, transient), animals with finding",[5]; [7],1
same,"Lens Defect (anatomic defect unrelated to administration), animals with finding",[5]; [7],1
same,"Corneal Staining (slight, transient), animals with finding","[5]; 3.2 mg TA/eye SCS, M, 13 weeks post administration",1
same,"Conjunctival discharge (slight, transient), animals with finding",[5]; [8],1
same,"Corneal Staining (slight, transient), animals with finding",[5]; [8],2
same,"Conjunctival congestion (slight, transient), animals with finding",[5]; [9],1
same,"Corneal Staining (slight, transient), animals with finding",[5]; [9],4
same,"adverse effects on clinical observations, body weight, or ophthalmic examinations",[5]; 3.2 or 5.2 mg TA SCS,no adverse effects
same,adverse effects related to treatment,[5]; 3.2 or 5.2 mg TA SCS,no observed adverse effects
same,findings during slit lamp biomicroscopy and fundus examination,"[5]; 3.2 or 5.2 mg TA SCS, up to 13 weeks",generally mild and transient in nature
same,"adverse effects related to the method of administration or treatments, as assessed by histopathology",[6]; 3.2 or 5.2 mg TA SCS,no adverse effects
same,inflammatory cells and test article in the suprachoroidal space (histopathology),[6]; 3.2 or 5.2 mg TA SCS,observed in the suprachoroidal space of TA-treated animals on Day 1 but not Week 13
same,"Ciliary process edema, animals with finding","[6]; Day 1, 3.2 mg TA/eye SCS, F",4
same,"Corneal epithelial thinning, animals with finding","[6]; Day 1, 3.2 mg TA/eye SCS, F",2
same,"Inflammatory cells in SCS, animals with finding","[6]; Day 1, 3.2 mg TA/eye SCS, F",4
same,"TA in SCS, animals with finding","[6]; Day 1, 3.2 mg TA/eye SCS, F",5
same,"Ciliary process edema, animals with finding","[6]; Day 1, 3.2 mg TA/eye SCS, M",4
same,"Conjunctival subepithelial inflammatory cells, animals with finding","[6]; Day 1, 3.2 mg TA/eye SCS, M",3
same,"Corneal epithelial thinning, animals with finding","[6]; Day 1, 3.2 mg TA/eye SCS, M",3
same,"Inflammatory cells in SCS, animals with finding","[6]; Day 1, 3.2 mg TA/eye SCS, M",5
same,"TA in SCS, animals with finding","[6]; Day 1, 3.2 mg TA/eye SCS, M",5
same,"Ciliary process edema, animals with finding","[6]; Day 1, 5.2 mg TA/eye SCS, F",5
same,"Conjunctival subepithelial inflammatory cells, animals with finding","[6]; Day 1, 5.2 mg TA/eye SCS, F",3
same,"Corneal epithelial thinning, animals with finding","[6]; Day 1, 5.2 mg TA/eye SCS, F",1
same,"Inflammatory cells in SCS, animals with finding","[6]; Day 1, 5.2 mg TA/eye SCS, F",5
same,"Small area of retinal damage (attributed to needle insertion), animals with finding","[6]; Day 1, 5.2 mg TA/eye SCS, F",1
same,"TA in SCS, animals with finding","[6]; Day 1, 5.2 mg TA/eye SCS, F",5
same,"Ciliary process edema, animals with finding","[6]; Day 1, 5.2 mg TA/eye SCS, M",4
same,"Conjunctival subepithelial inflammatory cells, animals with finding","[6]; Day 1, 5.2 mg TA/eye SCS, M",2
same,"Corneal epithelial thinning, animals with finding","[6]; Day 1, 5.2 mg TA/eye SCS, M",3
same,"Inflammatory cells in SCS, animals with finding","[6]; Day 1, 5.2 mg TA/eye SCS, M",5
same,"TA in SCS, animals with finding","[6]; Day 1, 5.2 mg TA/eye SCS, M",4
same,"Ciliary process edema, animals with finding","[6]; Week 13, 3.2 mg TA/eye SCS, F",1
same,"Dilated choroidal vessels, animals with finding","[6]; Week 13, 3.2 mg TA/eye SCS, F",1
same,"Small area of retinal damage (attributed to needle insertion), animals with finding","[6]; Week 13, 3.2 mg TA/eye SCS, F",1
same,"Ciliary process edema, animals with finding","[6]; Week 13, 3.2 mg TA/eye SCS, M",3
same,"Ciliary process edema, animals with finding","[6]; Week 13, 5.2 mg TA/eye SCS, F",3
same,"Ciliary process edema, animals with finding","[6]; Week 13, 5.2 mg TA/eye SCS, M",1
same,"Dilated choroidal vessels, animals with finding","[6]; Week 13, 5.2 mg TA/eye SCS, M",1
